The text below walks through data of ChEMBL document CHEMBL1152986, “The macrolide resistance genes erm(B) and mef(E) are carried by Tn2010 in dual-gene Streptococcus pneumoniae isolates belonging to clonal complex CC271” (2007).

The assay deals with Streptococcus pneumoniae. The assay is described as follows: Antibacterial activity against tetracycline-susceptible Streptococcus pneumoniae GMRS06 harboring one-nucleotide insertion stop codon in […] gene. The format is functional.

Each structure is given as a SMILES string. In brackets after ≈: the same amount, converted by molar mass.

By MIC is commonly meant the smallest concentration in the dilution series that meets the test's criterion for growth inhibition. A lower MIC goes with a more susceptible organism. `CN(C)[C@@H]1C(O)=C(C(N)=O)C(=O)[C@@]2(O)C(O)=C3C(=O)c4c(O)cccc4[C@@](C)(O)[C@H]3C[C@@H]12` [TETRACYCLINE] came in with an MIC of 0.25 µg/mL (≈ 0.563 µM).
